Measurements published in patent US20250163047A1, “HETEROCYCLIC COMPOUNDS, COMPOSITIONS THEREOF, AND METHODS OF TREATMENT THEREWITH” (BeiGene, Ltd., priority 2022, published 2025).

Experiments:
Cbl-b (aa36-427) = target: T1, Cbl-b (aa36-427) (Homo sapiens, UniProt Q13191); assay: Co-expressed Cbl-b with BirA biochemical assay (CBLB/E2-Ub binding, HTRF); conditions: 0.6 nM Cbl-b co-expressed with BirA, HTRF; read-out: co-express CBLB/E2-Ub-binding assay IC50
T1 construct: Cbl-b (aa36-427, in-house); made in house
Description: (§1) The assay in the absence of a Cbl-b/Cbl inhibitor, where phosphorylation of Cbl-b/Cbl by the Src kinase allows UbcH5B-Ub to bind to Cbl-b/Cbl and brings the Bodipy-Fluorescein tagged ubiquitin in proximity to the streptavidin-terbium bound to the N-terminal biotinylated Avi-tagged Cbl-b/Cbl. […] The lack of a FRET signal indicates Cbl-b/Cbl is inhibited by the Cbl-b/Cbl inhibitor.

Cbl (aa49-434) = target: T2, Cbl (aa49-434) (Homo sapiens, UniProt P22681); assay: Co-expressed Cbl with BirA biochemical assay (CBL/E2-Ub binding, HTRF); conditions: 0.6 nM Cbl co-expressed with BirA, read-out: co-express CBL/E2-Ub-binding assay IC50
T2 construct: Cbl (aa49-434, in-house); made in house
T2 sequence (P22681 49-434): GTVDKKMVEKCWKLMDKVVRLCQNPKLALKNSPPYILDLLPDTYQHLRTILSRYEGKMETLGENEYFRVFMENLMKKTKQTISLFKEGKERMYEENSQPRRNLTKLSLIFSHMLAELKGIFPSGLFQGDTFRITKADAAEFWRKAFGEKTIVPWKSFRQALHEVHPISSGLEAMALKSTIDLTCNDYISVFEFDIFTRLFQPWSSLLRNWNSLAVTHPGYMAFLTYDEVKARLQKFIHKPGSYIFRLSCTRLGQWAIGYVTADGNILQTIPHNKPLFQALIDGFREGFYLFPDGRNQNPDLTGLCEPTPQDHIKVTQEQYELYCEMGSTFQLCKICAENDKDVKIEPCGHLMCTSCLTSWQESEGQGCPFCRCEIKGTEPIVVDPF
Description: as §1

T1 sequence (Q13191 36-427): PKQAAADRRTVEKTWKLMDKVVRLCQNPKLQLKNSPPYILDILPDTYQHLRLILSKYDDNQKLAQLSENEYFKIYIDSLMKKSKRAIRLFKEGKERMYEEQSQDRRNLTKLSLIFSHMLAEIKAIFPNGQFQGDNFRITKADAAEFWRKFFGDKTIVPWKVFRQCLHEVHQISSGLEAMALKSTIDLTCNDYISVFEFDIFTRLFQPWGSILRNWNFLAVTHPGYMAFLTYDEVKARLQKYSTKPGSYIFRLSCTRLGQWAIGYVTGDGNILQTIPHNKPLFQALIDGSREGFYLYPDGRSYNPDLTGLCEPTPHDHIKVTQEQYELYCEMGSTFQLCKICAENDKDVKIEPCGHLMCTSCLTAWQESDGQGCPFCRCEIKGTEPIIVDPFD

Row | SMILES | IC50 (Cbl-b (aa36-427)) [nM] | IC50 (Cbl (aa49-434)) [nM]
1 | Cc1c[nH]c2c(CN3CCC[C@H](C)C3)cc(C(=O)Nc3cccc([C@]4(c5nncn5C)C[C@@H](CC#N)C4)c3)nc12 [Compound B10, N-(3-((1s,3R)-3-(cyanomethyl)-1-(4-methyl-4H-1,2,4-triazol-3-yl)cyclobutyl)phenyl)-3-methyl-7-(((S)-3-methylpiperidin-1-yl)methyl)-1H-pyrrolo[3,2-b]pyridine-5-carboxamide] | 2 | 15.6
2 | C[C@H](NCc1cc(C(=O)Nc2cccc([C@]3(c4nncn4C)C[C@@H](C)C3)c2)nc2cc[nH]c12)C1CCC1 [Compound B35, 7-((((S)-1-cyclobutylethyl)amino)methyl)-N-(3-((1s,3R)-3-methyl-1-(4-methyl-4H-1,2,4-triazol-3-yl)cyclobutyl)phenyl)-1H-pyrrolo[3,2-b]pyridine-5-carboxamide] | 0.7 | 1.1
3 | Cn1cnnc1[C@]1(c2cccc(NC(=O)c3cc(CNC4(C)CCC4)cn4c(F)cnc34)c2)C[C@H](C)C1 [Compound A44, 3-fluoro-N-(3-((1s, 3s)-3-methyl-1-(4-methyl-4H-1,2,4-triazol-3-yl)cyclobutyl)phenyl)-6-(((1-methylcyclobutyl)amino)methyl)imidazo[1,2-a]pyridine-8-carboxamide] | 1.8 | 7.7
4 | Cn1cnnc1[C@]1(c2cccc(NC(=O)c3cc(CNCC4CCCC4)c4c(n3)C(C)(C)CN4)c2)C[C@H](C)C1 [Compound C45, 7-{[(cyclopentylmethyl)amino]methyl}-3,3-dimethyl-N-{3-[(1r, 3s)-3-methyl-1-(4-methyl-1,2,4-triazol-3-yl)cyclobutyl]phenyl}-1H,2H-pyrrolo[3,2-b]pyridine-5-carboxamide] | 1.3 | 5.4
5 | Cn1cnnc1[C@]1(c2cccc(NC(=O)c3cc(CNCC4(C)CCC4)c4c(n3)C(C)(C)CC4)c2)C[C@H](CC#N)C1 [Compound C37, N-(3-((1s, 3s)-3-(cyanomethyl)-1-(4-methyl-4H-1,2,4-triazol-3-yl)cyclobutyl)phenyl)-7,7-dimethyl-4-((((1-methylcyclobutyl)methyl)amino)methyl)-6,7-dihydro-5H-cyclopenta[b]pyridine-2-carboxamide] | 0.9 | 2.4
6 | Cn1cnnc1[C@]1(c2cncc(NC(=O)c3cc(CNC4(C)CC4)cn4c(Cl)cnc34)c2)C[C@H](C)C1 [Compound A73, 3-chloro-N-(5-((1s, 3s)-3-methyl-1-(4-methyl-4H-1,2,4-triazol-3-yl)cyclobutyl)pyridin-3-yl)-6-(((1-methylcyclopropyl)amino)methyl)imidazo[1,2-a]pyridine-8-carboxamide] | 1.2 | 2.8
7 | C[C@H](NCc1cc(C(=O)Nc2cccc([C@]3(c4nncn4C)C[C@@H](CC#N)C3)c2)c2nccn2c1)C1CC1 [Compound A27, N-(3-((1s,3R)-3-(cyanomethyl)-1-(4-methyl-4H-1,2,4-triazol-3-yl)cyclobutyl)phenyl)-6-((((S)-1-cyclopropylethyl)amino)methyl)imidazo[1,2-a]pyridine-8-carboxamide] | 1.4 | 8
8 | C[C@H]1CCCN(Cc2cc(C(=O)Nc3cccc([C@]4(c5nncn5C)C[C@@H](C)C4)c3)nn3cccc23)C1 [Compound B13, 4-{[(3S)-3-methylpiperidin-1-yl]methyl}-N-{3-[(1r, 3s)-3-methyl-1-(4-methyl-1,2,4-triazol-3-yl)cyclobutyl]phenyl}pyrrolo[1,2-b]pyridazine-2-carboxamide] | 30.5 | 89.1
9 | Cn1cnnc1[C@]1(c2cncc(NC(=O)c3cc(CNC4(C)CC4)c4[nH]ccc4n3)c2)C[C@H](C)C1 [Compound B44, N-(5-((1s, 3s)-3-methyl-1-(4-methyl-4H-1,2,4-triazol-3-yl)cyclobutyl)pyridin-3-yl)-7-(((1-methylcyclopropyl)amino)methyl)-1H-pyrrolo[3,2-b]pyridine-5-carboxamide] | 1.9 | 9
10 | Cn1cnnc1[C@]1(c2cccc(NC(=O)c3cc(CNCC4(F)CCC4)cn4ccnc34)c2)C[C@H](CC#N)C1 [Compound A37, N-(3-((1s, 3s)-3-(cyanomethyl)-1-(4-methyl-4H-1,2,4-triazol-3-yl)cyclobutyl)phenyl)-6-((((1-fluorocyclobutyl)methyl)amino)methyl)imidazo[1,2-a]pyridine-8-carboxamide] | 0.8 | 4.8
11 | C[C@H]1CCCN(Cc2cc(C(=O)Nc3cccc([C@]4(c5nncn5C)C[C@@H](CC#N)C4)c3)nc3cn[nH]c23)C1 [Compound B8, N-(3-((1s,3R)-3-(cyanomethyl)-1-(4-methyl-4H-1,2,4-triazol-3-yl)cyclobutyl)phenyl)-7-(((S)-3-methylpiperidin-1-yl)methyl)-1H-pyrazolo[4,3-b]pyridine-5-carboxamide] | 1.8 | 21
12 | C[C@H]1CCCN(Cc2cc(C(=O)Nc3cccc([C@]4(c5nncn5C)C[C@@H](CC#N)C4)c3)c3ncc(F)n3c2)C1 [Compound A12, 3-fluoro-6-{[(3S)-3-methylpiperidin-1-yl]methyl}-N-{3-[(1s, 3s)-3-(cyanomethyl)-1-(4-methyl-1,2,4-triazol-3-yl)cyclobutyl]phenyl}imidazo[1,2-a]pyridine-8-carboxamide] | 3.9 | 32.4
13 | Cn1cnnc1[C@]1(c2cccc(NC(=O)c3cc(CNC4(C)CC4)cn4ncnc34)c2)C[C@H](C)C1 [Compound A87, N-(3-((1s, 3s)-3-methyl-1-(4-methyl-4H-1,2,4-triazol-3-yl)cyclobutyl)phenyl)-6-(((1-methylcyclopropyl)amino)methyl)-[1,2,4]triazolo[1,5-a]pyridine-8-carboxamide] | 1.5 | 12
14 | C[C@H](NCc1cc(C(=O)Nc2cncc([C@]3(c4nncn4C)C[C@@H](C)C3)c2)nc2cc[nH]c12)C1CCC1 [Compound B43, 7-({[(1S)-1-cyclobutylethyl]amino}methyl)-N-{5-[(1r, 3s)-3-methyl-1-(4-methyl-1,2,4-triazol-3-yl)cyclobutyl]pyridin-3-yl}-1H-pyrrolo[3,2-b]pyridine-5-carboxamide] | 0.6 | 0.6
15 | Cn1cnnc1[C@]1(c2cncc(NC(=O)c3cc(CNC4(C)CCC4)cn4c(Cl)cnc34)c2)C[C@H](C)C1 [Compound A82, 3-chloro-N-(5-((1s, 3s)-3-methyl-1-(4-methyl-4H-1,2,4-triazol-3-yl)cyclobutyl)pyridin-3-yl)-6-(((1-methylcyclobutyl)amino)methyl)imidazo[1,2-a]pyridine-8-carboxamide] | 0.7 | 1.8
16 | Cc1cnc2c(C(=O)Nc3cncc([C@]4(c5nncn5C)C[C@@H](C)C4)c3)cc(CN3CC[C@H](F)[C@H](C)C3)cn12 [Compound A55, 6-{[(3R,4S)-4-fluoro-3-methylpiperidin-1-yl]methyl}-3-methyl-N-{5-[(1r, 3s)-3-methyl-1-(4-methyl-1,2,4-triazol-3-yl)cyclobutyl]pyridin-3-yl}imidazo[1,2-a]pyridine-8-carboxamide] | 2.9 | 6.7
17 | Cn1cnnc1[C@]1(c2cccc(NC(=O)c3cc(CNC4(C)CC4)c4c(n3)C(C)(C)CC4)c2)C[C@H](CC#N)C1 [Compound C24, N-(3-((1s, 3s)-3-(cyanomethyl)-1-(4-methyl-4H-1,2,4-triazol-3-yl)cyclobutyl)phenyl)-7,7-dimethyl-4(((1methylcyclopropyl)amino)methyl)-6,7-dihydro-5H-cyclopenta[b]pyridine-2-carboxamide] | 1.6 | 10.4
18 | C[C@H](NCc1cc(C(=O)Nc2cccc([C@]3(c4nncn4C)C[C@@H](C)C3)c2)nc2c1CCC2(F)F)C1CCC1 [Compound C59, 4-((((S)-1-cyclobutylethyl)amino)methyl)-7,7-difluoro-N-(3-((1s,3R)-3-methyl-1-(4-methyl-4H-1,2,4-triazol-3-yl)cyclobutyl)phenyl)-6,7-dihydro-5H-cyclopenta[b]pyridine-2-carboxamide] | 2.5 | 7.3
19 | C[C@H](NCc1cc(C(=O)Nc2cccc([C@]3(c4nncn4C)C[C@@H](C)C3)c2)c2nccn2c1)C1CCCC1 [Compound A40, 6-((((S)-1-cyclopentylethyl)amino)methyl)-N-(3-((1s,3R)-3-methyl-1-(4-methyl-4H-1,2,4-triazol-3-yl)cyclobutyl)phenyl)imidazo[1,2-a]pyridine-8-carboxamide] | 1.6 | 3.1
20 | C[C@H](NCc1cc(C(=O)Nc2cccc([C@]3(c4nncn4C)C[C@@H](C)C3)c2)c2ncc(Cl)n2c1)C1CC1 [Compound A58, 3-chloro-6-((((S)-1-cyclopropylethyl)amino)methyl)-N-(3-((1s,3R)-3-methyl-1-(4-methyl-4H-1,2,4-triazol-3-yl)cyclobutyl)phenyl)imidazo[1,2-a]pyridine-8-carboxamide] | 0.7 | 2.6
